According to patent US20250276964A1 (Novartis AG, priority 2021, published 2025):
Where a name gives a salt, the structure may show the parent alone. Blank lines part the entries; values can stand above or below the compound they belong to.

Target: T1, WIZ (Homo sapiens, UniProt O95785+Q96SW2)
T1 construct: expressed in transfected cells
Test: Quantification of WIZ protein levels in HiBit tag fusion protein assay (WIZ HiBit assay in 293T cells)
Format: cell-based
Settings: for Dmax at 25 µM / remaining activity at 25 µM: HEK-293T; for Dmax at 25 µM: read-out: % degradation of WIZ (100-Amax); for remaining activity at 25 µM: read-out: WIZ Amax; for DC50: WIZ HiBit assay in 293T cells, 10-point, 5-fold dilution, highest concentration 25 μM, about 18 hours, read-out: WIZ AC50
Description: The HiBit system from Promega was used to develop high-throughput and quantitative assays to measure changes in WIZ protein levels in response to compounds. The HiBit tag was derived from a split Nanoluciferase and has the following protein sequence: […] (SEQ ID NO: 1). The complementary fragment of Nanoluciferase (known as LgBit, from Promega), was added to the HiBit tag to form an active Nanoluciferase enzyme whose activity can be precisely measured. In this way, the levels of a fusion protein with the HiBit tag can be quantified in cell lysates.
Lentiviral vectors, based on the Invitrogen™ pLenti6.2/V5 DEST backbone were constructed that places the HiBit tag upstream of WIZ and expressed the fusion protein from an HSVTK promotor.
To ensure moderate and consistent expression of the HiBit-WIZ fusion protein across all cells in the population, stable cell lines were constructed from cells harboring a single copy of the construct. Lentivirus packaged with the constructs were made using the ViraPower™kit from Invitrogen™. 293T cells from ATCC (Catalog number: CRL-3216), were infected with the virus at low multiplicity of infection and selected by 5 μg/mL blasticidin in culture media for 2 weeks.
The levels of HiBit-WIZ tagged fusion proteins in compound-treated cell lines were measured as follows:
On day 1, cells were diluted to 1.0×10^6 cells/ml in normal growth medium. 20 μL of cell suspension were plated in each well of a solid white 384-well plate. Plates were incubated overnight in a 37° C. and 5% CO2 humidified tissue culture incubator.
On day 2, serial dilutions of compounds were made in 384-well plates. Compound plates were set up with DMSO in columns 1, 2, 23, 24, and 10-point compound dilution series in column 3-12 and column 13-22. 10 mM stock solution of compound were placed into column 3 or 13 and a 1:5 serial dilution was carried out until there was a 10-point dilution series per compound. 50 nL of diluted compounds were transferred into the plated cells by Echo® (Labcyte) acoustic transfer. The highest concentration of compound was 25 μM. Plates were incubated overnight (about 18 hours) in a 37° C. and 5% CO2 humidified tissue culture incubator.
On day 3, plates were removed from the incubator and allowed to equilibrate at room temperature for 60 minutes. HiBit substrate (Nano-Glo® HiBit Lytic Detection System, Promega Catalogue number: N3050) was added as described by the manufacturers protocols. Plates were incubated at room temperature for 30 minutes and luminescence was read using an EnVision® reader (PerkinElmer®). Data was analyzed and visualized using the Spotfire® software package.
WIZ Amax reflects the DMSO-normalized, curve-fitted percentage of WIZ-HiBit remaining at 25 uM. It was calculated by normalizing DMSO controls to 100%, parametric curve fitting of the dose response data (10-point, 5-fold), followed by calculation of response at 25 uM using the fitted equation (nd=not determined).

[1] = DMSO-normalized, curve-fitted percentage of WIZ-HiBit remaining at 25 uM

T1 sequence (O95785 whole entry): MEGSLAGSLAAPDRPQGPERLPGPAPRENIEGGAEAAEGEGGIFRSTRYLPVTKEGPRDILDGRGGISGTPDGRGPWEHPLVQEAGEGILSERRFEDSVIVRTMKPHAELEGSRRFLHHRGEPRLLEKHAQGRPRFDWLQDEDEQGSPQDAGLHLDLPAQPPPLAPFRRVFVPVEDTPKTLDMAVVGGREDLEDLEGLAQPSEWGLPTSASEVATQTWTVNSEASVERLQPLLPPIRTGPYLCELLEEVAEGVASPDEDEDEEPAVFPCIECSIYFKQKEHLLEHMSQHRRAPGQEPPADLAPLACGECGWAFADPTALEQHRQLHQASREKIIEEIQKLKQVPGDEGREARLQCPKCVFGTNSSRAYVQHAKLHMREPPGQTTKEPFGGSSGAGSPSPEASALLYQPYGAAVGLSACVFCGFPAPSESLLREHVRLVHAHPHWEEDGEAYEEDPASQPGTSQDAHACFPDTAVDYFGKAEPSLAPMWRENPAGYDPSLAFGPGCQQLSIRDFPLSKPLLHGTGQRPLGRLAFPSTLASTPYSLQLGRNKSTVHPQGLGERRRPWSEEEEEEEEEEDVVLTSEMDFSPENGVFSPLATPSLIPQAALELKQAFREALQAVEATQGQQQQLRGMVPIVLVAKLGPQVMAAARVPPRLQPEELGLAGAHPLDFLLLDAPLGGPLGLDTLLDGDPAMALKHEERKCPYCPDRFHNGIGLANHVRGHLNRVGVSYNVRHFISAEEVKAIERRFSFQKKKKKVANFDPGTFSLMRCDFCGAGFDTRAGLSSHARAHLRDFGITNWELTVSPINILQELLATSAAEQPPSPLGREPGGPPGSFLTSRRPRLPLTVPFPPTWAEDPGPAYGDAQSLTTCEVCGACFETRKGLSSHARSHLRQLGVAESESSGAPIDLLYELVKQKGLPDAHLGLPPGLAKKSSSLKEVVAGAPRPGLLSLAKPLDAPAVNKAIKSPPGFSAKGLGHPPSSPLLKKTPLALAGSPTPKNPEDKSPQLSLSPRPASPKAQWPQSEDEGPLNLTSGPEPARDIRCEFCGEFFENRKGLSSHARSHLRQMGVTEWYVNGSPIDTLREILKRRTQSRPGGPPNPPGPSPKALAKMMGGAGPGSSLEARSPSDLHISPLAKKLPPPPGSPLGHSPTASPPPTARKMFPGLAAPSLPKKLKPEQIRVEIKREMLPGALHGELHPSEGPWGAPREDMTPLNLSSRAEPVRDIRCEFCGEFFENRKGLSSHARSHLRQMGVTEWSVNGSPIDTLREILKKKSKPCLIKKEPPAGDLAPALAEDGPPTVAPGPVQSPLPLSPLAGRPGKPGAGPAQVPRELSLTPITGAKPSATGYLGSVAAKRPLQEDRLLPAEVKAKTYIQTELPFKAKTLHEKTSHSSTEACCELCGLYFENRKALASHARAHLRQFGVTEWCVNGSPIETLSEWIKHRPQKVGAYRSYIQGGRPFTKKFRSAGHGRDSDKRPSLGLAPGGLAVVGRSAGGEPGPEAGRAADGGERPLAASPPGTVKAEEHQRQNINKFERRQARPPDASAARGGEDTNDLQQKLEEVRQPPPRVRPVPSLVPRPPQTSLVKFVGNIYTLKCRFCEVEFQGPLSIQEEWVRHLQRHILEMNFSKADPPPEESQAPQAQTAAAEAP
T1 sequence (Q96SW2 whole entry): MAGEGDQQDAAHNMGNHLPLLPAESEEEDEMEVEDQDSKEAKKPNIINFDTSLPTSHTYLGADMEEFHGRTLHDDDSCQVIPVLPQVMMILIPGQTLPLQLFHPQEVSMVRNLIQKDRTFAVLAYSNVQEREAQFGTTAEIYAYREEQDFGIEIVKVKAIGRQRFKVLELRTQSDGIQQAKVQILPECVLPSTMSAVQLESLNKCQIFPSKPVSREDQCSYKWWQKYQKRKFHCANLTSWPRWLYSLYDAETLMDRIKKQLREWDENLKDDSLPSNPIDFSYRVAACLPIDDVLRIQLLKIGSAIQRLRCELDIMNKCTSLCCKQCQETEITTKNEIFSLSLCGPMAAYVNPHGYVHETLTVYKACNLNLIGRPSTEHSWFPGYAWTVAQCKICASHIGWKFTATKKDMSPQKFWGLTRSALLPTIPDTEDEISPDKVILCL
T1 sequence (Q16531 whole entry partner): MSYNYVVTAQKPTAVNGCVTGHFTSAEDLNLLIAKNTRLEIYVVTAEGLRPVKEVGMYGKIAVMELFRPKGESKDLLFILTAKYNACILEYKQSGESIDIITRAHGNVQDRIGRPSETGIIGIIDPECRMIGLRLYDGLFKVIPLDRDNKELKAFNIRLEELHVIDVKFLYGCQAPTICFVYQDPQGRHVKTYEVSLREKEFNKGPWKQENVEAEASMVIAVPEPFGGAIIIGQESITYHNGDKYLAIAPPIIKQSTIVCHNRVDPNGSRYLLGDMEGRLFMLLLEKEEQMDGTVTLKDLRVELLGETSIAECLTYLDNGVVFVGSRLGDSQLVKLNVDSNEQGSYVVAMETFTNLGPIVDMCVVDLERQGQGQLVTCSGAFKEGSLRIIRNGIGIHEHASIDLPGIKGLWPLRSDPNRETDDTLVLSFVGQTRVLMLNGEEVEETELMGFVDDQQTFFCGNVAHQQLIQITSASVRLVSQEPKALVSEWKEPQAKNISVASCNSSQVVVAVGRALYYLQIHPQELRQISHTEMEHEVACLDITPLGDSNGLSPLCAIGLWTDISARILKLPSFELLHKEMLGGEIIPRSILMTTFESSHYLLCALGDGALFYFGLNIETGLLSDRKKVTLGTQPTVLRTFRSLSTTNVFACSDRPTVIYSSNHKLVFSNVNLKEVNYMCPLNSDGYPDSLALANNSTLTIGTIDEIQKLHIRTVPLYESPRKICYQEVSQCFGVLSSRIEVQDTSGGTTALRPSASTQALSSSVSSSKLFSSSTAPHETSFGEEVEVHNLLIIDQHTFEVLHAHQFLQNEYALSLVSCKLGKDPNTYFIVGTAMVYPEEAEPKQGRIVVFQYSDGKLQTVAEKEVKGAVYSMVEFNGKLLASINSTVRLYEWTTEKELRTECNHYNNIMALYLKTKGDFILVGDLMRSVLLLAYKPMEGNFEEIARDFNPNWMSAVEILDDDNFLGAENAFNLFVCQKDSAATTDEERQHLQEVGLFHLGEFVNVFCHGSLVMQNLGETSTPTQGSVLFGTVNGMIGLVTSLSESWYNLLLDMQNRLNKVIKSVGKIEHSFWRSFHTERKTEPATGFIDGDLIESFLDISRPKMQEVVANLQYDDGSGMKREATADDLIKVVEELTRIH

Compound: COC[C@H]1CN(Cc2ccc3onc(N4CCC(=O)NC4=O)c3c2)CCN1CC(C)C [Example 114, (R)-1-(5-((4-isobutyl-3-(methoxymethyl)piperazin-1-yl)methyl)benzo[d]isoxazol-3-yl)dihydropyrimidine-2,4(1H,3H)-dione]
Dmax at 25 µM (100 minus Amax at 25 uM): 85%
remaining activity at 25 µM [1]: 15%
DC50: 115 nM

Compound: CC[C@@H]1CN(CC(C)C)CCN1Cc1ccc2onc(N3CCC(=O)NC3=O)c2c1 [Example 88, (R)-1-(5-((2-ethyl-4-isobutylpiperazin-1-yl)methyl)benzo[d]isoxazol-3-yl)dihydropyrimidine-2,4(1H,3H)-dione]
Dmax at 25 µM (100 minus Amax at 25 uM): 85%
remaining activity at 25 µM [1]: 15%
DC50: 8 nM

Compound: CN1CCN(Cc2ccc3onc(N4CCC(=O)NC4=O)c3c2)CC1 [Example 22, 1-(5-((4-methylpiperazin-1-yl)methyl)benzo[d]isoxazol-3-yl)dihydropyrimidine-2,4(1H,3H)-dione]
Dmax at 25 µM (100 minus Amax at 25 uM): 91%
remaining activity at 25 µM [1]: 9%
DC50: 10 nM

Compound: CC(C)C(=O)N1CCN(Cc2ccc3onc(N4CCC(=O)NC4=O)c3c2)CC1 [Example 85, 1-(5-((4-isobutyrylpiperazin-1-yl)methyl)benzo[d]isoxazol-3-yl)dihydropyrimidine-2,4(1H,3H)-dione]
Dmax at 25 µM (100 minus Amax at 25 uM): 82%
remaining activity at 25 µM [1]: 18%
DC50: 218 nM

Compound: O=C1CCN(c2noc3ccc(CC4CCN(CC5CCCCC5)CC4)cc23)C(=O)N1 [Example 1, 1-(5-((1-(cyclohexylmethyl)piperidin-4-yl)methyl)benzo[d]isoxazol-3-yl)dihydropyrimidine-2,4(1H,3H)-dione]
Dmax at 25 µM (100 minus Amax at 25 uM): 91%
remaining activity at 25 µM [1]: 9%
DC50: 7.2 nM

Compound: O=C1CCN(c2noc3ccc(CC4CCN(CC5CCC(F)(F)CC5)CC4)cc23)C(=O)N1 [Example 2, 1-(5-((1-((4,4-difluorocyclohexyl)methyl)piperidin-4-yl)methyl)benzo[d]isoxazol-3-yl)dihydropyrimidine-2,4(1H,3H)-dione]
Dmax at 25 µM (100 minus Amax at 25 uM): 92%
remaining activity at 25 µM [1]: 8%
DC50: 1.2 nM

Compound: CC(C)S(=O)(=O)N1CCC(Cc2ccc3onc(N4CCC(=O)NC4=O)c3c2)CC1 [Example 14, 1-(5-((1-(isopropylsulfonyl)piperidin-4-yl)methyl)benzo[d]isoxazol-3-yl)dihydropyrimidine-2,4(1H,3H)-dione]
Dmax at 25 µM (100 minus Amax at 25 uM): 90%
remaining activity at 25 µM [1]: 10%
DC50: 14 nM

Compound: CN1CCCC(Cc2ccc3onc(N4CCC(=O)NC4=O)c3c2)C1 (stereo not drawn) [Example 45, 1-(5-((1-methylpiperidin-3-yl)methyl)benzo[d]isoxazol-3-yl)dihydropyrimidine-2,4(1H,3H)-dione]
Dmax at 25 µM (100 minus Amax at 25 uM): 77%
remaining activity at 25 µM [1]: 23%
DC50: 240 nM

Compound: CC(C)CN1CCN(Cc2ccc3onc(N4CCC(=O)NC4=O)c3c2)[C@H](C(C)C)C1 [Example 90, (R)-1-(5-((4-isobutyl-2-isopropylpiperazin-1-yl)methyl)benzo[d]isoxazol-3-yl)dihydropyrimidine-2,4(1H,3H)-dione]
Dmax at 25 µM (100 minus Amax at 25 uM): 85%
remaining activity at 25 µM [1]: 15%
DC50: 7 nM

Compound: CC(C)[C@H]1CN(Cc2ccc3onc(N4CCC(=O)NC4=O)c3c2)CCN1C [Example 37, (S)-1-(5-((3-isopropyl-4-methylpiperazin-1-yl)methyl)benzo[d]isoxazol-3-yl)dihydropyrimidine-2,4(1H,3H)-dione]
Dmax at 25 µM (100 minus Amax at 25 uM): 80%
remaining activity at 25 µM [1]: 20%
DC50: 260 nM

Compound: CC(C)CN1CCN(Cc2ccc3onc(N4CCC(=O)NC4=O)c3c2)C[C@H]1C [Example 34, (R)-1-(5-((4-isobutyl-3-methylpiperazin-1-yl)methyl)benzo[d]isoxazol-3-yl)dihydropyrimidine-2,4(1H,3H)-dione]
Dmax at 25 µM (100 minus Amax at 25 uM): 89%
remaining activity at 25 µM [1]: 11%
DC50: 40 nM

Compound: O=C1CCN(c2noc3ccc(CC4CCN(CCC5CCCCC5)CC4)cc23)C(=O)N1 [Example 11, 1-(5-((1-(2-cyclohexylethyl)piperidin-4-yl)methyl)benzo[d]isoxazol-3-yl)dihydropyrimidine-2,4(1H,3H)-dione]
Dmax at 25 µM (100 minus Amax at 25 uM): 90%
remaining activity at 25 µM [1]: 10%
DC50: 11 nM

Compound: CC(C)CN1CCN(Cc2ccc3onc(N4CCC(=O)NC4=O)c3c2)[C@H](C)C1 [Example 33, (R)-1-(5-((4-isobutyl-2-methylpiperazin-1-yl)methyl)benzo[d]isoxazol-3-yl)dihydropyrimidine-2,4(1H,3H)-dione]
Dmax at 25 µM (100 minus Amax at 25 uM): 88%
remaining activity at 25 µM [1]: 12%
DC50: 32 nM

Compound: CS(=O)(=O)N1C[C@H]2CC[C@@H](C1)N2Cc1ccc2onc(N3CCC(=O)NC3=O)c2c1 [Example 104, 1-(5-(((1R,5S)-3-(methylsulfonyl)-3,8-diazabicyclo[3.2.1]octan-8-yl)methyl)benzo[d]isoxazol-3-yl)dihydropyrimidine-2,4(1H,3H)-dione]
Dmax at 25 µM (100 minus Amax at 25 uM): 85%
remaining activity at 25 µM [1]: 15%
DC50: 181 nM

Compound: CC(C)(C)OC(=O)N1[C@@H]2CC[C@H]1CC(Cc1ccc3onc(N4CCC(=O)NC4=O)c3c1)C2 (single isomer, unassigned) [Example 55]
% degradation of WIZ (100-Amax) (100 minus Amax at 25 uM): 70%
WIZ Amax [1]: 30%
DC50: 3200 nM

Compound: C[C@@H]1CN(CC(=O)N2CCCCC2)CCN1Cc1ccc2onc(N3CCC(=O)NC3=O)c2c1 [Example 70, (R)-1-(5-((2-methyl-4-(2-oxo-2-(piperidin-1-yl)ethyl)piperazin-1-yl)methyl)benzo[d]isoxazol-3-yl)dihydropyrimidine-2,4(1H,3H)-dione]
Dmax at 25 µM (100 minus Amax at 25 uM): 78%
remaining activity at 25 µM [1]: 22%
DC50: 300 nM

The remaining compounds from weak to strong by DC50, led by results:

Dmax at 25 µM (100 minus Amax at 25 uM): 77%
remaining activity at 25 µM [1]: 23%
DC50: 475 nM
Compound: O=C1CCN(c2noc3ccc(CC4CCCN(CC5CCCCC5)C4)cc23)C(=O)N1 (stereo not drawn) [Example 44, 1-(5-((1-(cyclohexylmethyl)piperidin-3-yl)methyl)benzo[d]isoxazol-3-yl)dihydropyrimidine-2,4(1H,3H)-dione]

Dmax at 25 µM (100 minus Amax at 25 uM): 88%
remaining activity at 25 µM [1]: 12%
DC50: 210 nM
Compound: O=C1CCN(c2noc3ccc(CC4CCNCC4)cc23)C(=O)N1 [Example 1b, 1-(5-(piperidin-4-ylmethyl)benzo[d]isoxazol-3-yl)dihydropyrimidine-2,4(1H,3H)-dione hydrochloride]

Dmax at 25 µM (100 minus Amax at 25 uM): 86%
remaining activity at 25 µM [1]: 14%
DC50: 190 nM
Compound: O=C1CCN(c2noc3ccc(CN4CCN(Cc5cccnc5)CC4)cc23)C(=O)N1 [Example 26, 1-(5-((4-(pyridin-3-ylmethyl)piperazin-1-yl)methyl)benzo[d]isoxazol-3-yl)dihydropyrimidine-2,4(1H,3H)-dione]

Dmax at 25 µM (100 minus Amax at 25 uM): 83%
remaining activity at 25 µM [1]: 17%
DC50: 110 nM
Compound: CC(C)S(=O)(=O)N1CCN(Cc2ccc3onc(N4CCC(=O)NC4=O)c3c2)[C@H](C)C1 [Example 73, (R)-1-(5-((4-(isopropylsulfonyl)-2-methylpiperazin-1-yl)methyl)benzo[d]isoxazol-3-yl)dihydropyrimidine-2,4(1H,3H)-dione]

Dmax at 25 µM (100 minus Amax at 25 uM): 89%
remaining activity at 25 µM [1]: 11%
DC50: 24 nM
Compound: CCN1CCN(Cc2ccc3onc(N4CCC(=O)NC4=O)c3c2)CC1 [Example 62, 1-(5-((4-ethylpiperazin-1-yl)methyl)benzo[d]isoxazol-3-yl)dihydropyrimidine-2,4(1H,3H)-dione]

Dmax at 25 µM (100 minus Amax at 25 uM): 90%
remaining activity at 25 µM [1]: 10%
DC50: 19 nM
Compound: O=C1CCN(c2noc3ccc(CN4CCN(CC5CCCCC5)CC4)cc23)C(=O)N1 [Example 21, 1-(5-((4-(cyclohexylmethyl)piperazin-1-yl)methyl)benzo[d]isoxazol-3-yl)dihydropyrimidine-2,4(1H,3H)-dione]

Dmax at 25 µM (100 minus Amax at 25 uM): 90%
remaining activity at 25 µM [1]: 10%
DC50: 5.4 nM
Compound: C[C@H]1CN(Cc2ccc3onc(N4CCC(=O)NC4=O)c3c2)CCN1CC1CCCCC1 [Example 28, (S)-1-(5-((4-(cyclohexylmethyl)-3-methylpiperazin-1-yl)methyl)benzo[d]isoxazol-3-yl)dihydropyrimidine-2,4(1H,3H)-dione]
